Among the test systems are A498 renal; SNB-75 CNS; NCI/ADR-RES ovarian; M14 melanoma; BT-549 breast; SN12C renal; SK-MEL-2 melanoma; K-562 leukemia; UO-31 renal; SNB-19 CNS.
Common to all, as to experiment: growth of human tumour cells (NCI), 48 h

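Test compounds were applied to cells in 96-well plates for 48 hours at 5 doses. GI50 is the concentration that inhibits growth by half. TGI: concentration producing complete growth inhibition.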

For the molecule `Fc1ccc(-c2ncn(C3CCNCC3)c2-c2ccnc(Oc3ccc(Oc4ccccc4)cc3)n2)cc1`, the GI50 in the experiment on A498 renal was 3.57 µM; in the experiment on SNB-75 CNS, 3.4 µM; in the experiment with NCI/ADR-RES ovarian, 3.48 µM; with M14 melanoma, 4.31 µM; in the experiment on BT-549 breast, 3.75 µM; in the experiment on SN12C renal, 3.57 µM. For the same molecule, the GI50 in the experiment on SK-MEL-2 melanoma was 5.03 µM; with K-562 leukemia, 1.95 µM; with UO-31 renal, 2.96 µM; with SNB-19 CNS, 4.25 µM. Also, the TGI in the experiment with A498 renal worked out at 7.01 µM; in the experiment on SNB-75 CNS it was 6.67 µM; in the experiment with NCI/ADR-RES ovarian, 7.04 µM; in the experiment on M14 melanoma, 7.99 µM; in the experiment with BT-549 breast it was 7.1 µM; in the experiment with SN12C renal it was 6.96 µM. Further, the TGI in the experiment on SK-MEL-2 melanoma came out at 9.06 µM; in the experiment with K-562 leukemia it was 5.74 µM; in the experiment on UO-31 renal, 6.29 µM; with SNB-19 CNS, 7.92 µM.

In the case of `O=C(O)c1ccccc1/C=C1/Nc2ccccc2C1=O`, the TGI in the experiment on A498 renal, in the experiment with SNB-75 CNS, in the experiment with NCI/ADR-RES ovarian, in the experiment on M14 melanoma, in the experiment on SN12C renal and in the experiment with SK-MEL-2 melanoma was above 100 µM in each case. The TGI with K-562 leukemia, in the experiment on UO-31 renal and in the experiment with SNB-19 CNS was above 100 µM each time.

With `CC1CCCc2c(CC3CC(=O)NC(=O)C3)nc(N)nc21` (stereo not drawn), the TGI with A498 renal, with SNB-75 CNS, with NCI/ADR-RES ovarian, with M14 melanoma, with BT-549 breast and in the experiment with SN12C renal was above 100 µM each time. For the same molecule, the TGI in the experiment on SK-MEL-2 melanoma and in the experiment with K-562 leukemia was above 100 µM throughout.

On to `BrCC[N+]12CCCN1CCC2`, for which the TGI in the experiment with A498 renal is above 66.2 µM; with SNB-75 CNS it was 32 µM; with M14 melanoma it was 24.7 µM; with BT-549 breast, 31.3 µM; in the experiment on SN12C renal, 29.3 µM; in the experiment on SK-MEL-2 melanoma it was 48.4 µM. In addition, the values for the TGI in the experiment on K-562 leukemia, with UO-31 renal and in the experiment on SNB-19 CNS were 8.46 µM, 39.2 µM and above 77 µM, respectively.

For `Cc1c(-c2ccnc(N)n2)c2c(n1-c1ccccc1)C(=O)c1ccccc1C2=O`, the GI50 with SNB-75 CNS was 30 µM; in the experiment on NCI/ADR-RES ovarian, 15.8 µM; with M14 melanoma, 46.8 µM; with BT-549 breast, 6.3 µM; in the experiment on SN12C renal, 14.7 µM; with SK-MEL-2 melanoma it was 22.9 µM. For the same molecule, the GI50 in the experiment on K-562 leukemia was 3.78 µM; in the experiment on UO-31 renal, 13.5 µM; in the experiment with SNB-19 CNS it was 70 µM. The TGI with SNB-75 CNS was above 100 µM; with NCI/ADR-RES ovarian, 66.8 µM; in the experiment with M14 melanoma, above 100 µM; in the experiment on BT-549 breast, 29.9 µM; in the experiment with SN12C renal, 53.8 µM; with SK-MEL-2 melanoma it was 57.2 µM. Moreover, the TGI was 25.5 µM with K-562 leukemia, 51.1 µM with UO-31 renal and above 100 µM in the experiment on SNB-19 CNS.

On to `C=C(C)[C@@H]1CC[C@@H]2C(=CC[C@]3(C)C([C@H](C)CC/C=C(/C)C(=O)O)CC[C@@]23C)[C@@]1(C)CCC(=O)O` (stereo partly drawn), for which the TGI is 74.4 µM in the experiment on A498 renal; above 100 µM with SNB-75 CNS; above 100 µM in the experiment with M14 melanoma; 51 µM with BT-549 breast; above 100 µM with SN12C renal; 45.1 µM with SK-MEL-2 melanoma. For the same molecule, the TGI in the experiment on K-562 leukemia was above 100 µM; with UO-31 renal, 30.7 µM; in the experiment on SNB-19 CNS it was above 100 µM.

Consider `Clc1cc(-c2csc(Cl)c2)cs1`, for which the TGI with A498 renal, in the experiment on SNB-75 CNS, in the experiment on NCI/ADR-RES ovarian, in the experiment with M14 melanoma, in the experiment on SN12C renal and in the experiment with SK-MEL-2 melanoma was above 100 µM throughout. Further, the TGI with UO-31 renal and in the experiment with SNB-19 CNS was above 100 µM in each case.

With `N#CCCCCCn1c2ccccc2c2c3c(c4c5ccccc5[nH]c4c21)C(=O)N(O)C3=O`, the GI50 is 1.72 µM in the experiment with A498 renal; 0.684 µM in the experiment with SNB-75 CNS; 5.52 µM with NCI/ADR-RES ovarian; 0.595 µM in the experiment with M14 melanoma; 1.84 µM in the experiment with BT-549 breast; 1.29 µM in the experiment on SN12C renal. Further, the values for the GI50 with SK-MEL-2 melanoma, with K-562 leukemia and in the experiment with SNB-19 CNS were 1.83 µM, 1.07 µM and 0.959 µM, respectively. Further, the TGI was 4.94 µM in the experiment with A498 renal; 9.55 µM in the experiment with SNB-75 CNS; above 100 µM in the experiment on NCI/ADR-RES ovarian; 2.51 µM with M14 melanoma; 9.53 µM with BT-549 breast; 4.92 µM with SN12C renal. The TGI with SK-MEL-2 melanoma was 4.67 µM; with K-562 leukemia, above 100 µM; in the experiment on SNB-19 CNS it was above 100 µM.

Regarding `CN(C)CC1CCCCCCCCCCC1=O` (stereo not drawn), the TGI in the experiment on SNB-75 CNS, with NCI/ADR-RES ovarian, in the experiment on M14 melanoma, in the experiment with BT-549 breast, with SN12C renal and in the experiment with SK-MEL-2 melanoma was above 100 µM throughout. The TGI with K-562 leukemia, with UO-31 renal and in the experiment on SNB-19 CNS was above 100 µM each time. In addition, the GI50 in the experiment on NCI/ADR-RES ovarian, in the experiment on M14 melanoma, with BT-549 breast, with SN12C renal, in the experiment with SK-MEL-2 melanoma and in the experiment with K-562 leukemia was above 100 µM throughout. Moreover, the GI50 in the experiment with UO-31 renal and in the experiment on SNB-19 CNS was above 100 µM throughout.

Turning to `COc1ccc(C2C3=C(COC3=O)N(CCO)c3cc4c(cc32)CCC4)cc1OC` (stereo not drawn), the GI50 with A498 renal is 0.242 µM; in the experiment with SNB-75 CNS, 0.253 µM; in the experiment on NCI/ADR-RES ovarian, 2.52 µM; in the experiment with M14 melanoma it was 0.542 µM; in the experiment with BT-549 breast, 3.42 µM; in the experiment on SN12C renal, 3.41 µM. Besides, the GI50 in the experiment on K-562 leukemia is 0.47 µM; with UO-31 renal, 1.13 µM; in the experiment on SNB-19 CNS, 2.16 µM. Further, the TGI is above 20 µM in the experiment with A498 renal; 2.48 µM in the experiment on SNB-75 CNS; above 36.4 µM in the experiment on NCI/ADR-RES ovarian; above 11.8 µM in the experiment with M14 melanoma; above 50 µM with BT-549 breast; above 50 µM in the experiment with SN12C renal. Also, the TGI in the experiment on K-562 leukemia, in the experiment with UO-31 renal and in the experiment on SNB-19 CNS was above 50 µM in each case.

Regarding `O=C(c1nc2ccccc2[nH]1)C1C(c2cccc([N+](=O)[O-])c2)C2CC3CCCCC3N2[C@@]12C(=O)Nc1cc(Cl)ccc12` (stereo partly drawn), the GI50 in the experiment on SNB-75 CNS was 1.18 µM; in the experiment on NCI/ADR-RES ovarian it was 2.51 µM; with BT-549 breast, 1.77 µM; in the experiment with SN12C renal, 1.72 µM; in the experiment on K-562 leukemia, 2.6 µM; with UO-31 renal, 1.38 µM. For the same molecule, the GI50 in the experiment with SNB-19 CNS was 2.04 µM. Besides, the TGI in the experiment on SNB-75 CNS is 3.63 µM; with NCI/ADR-RES ovarian it was 8.18 µM; in the experiment with BT-549 breast, 4.36 µM; in the experiment with SN12C renal it was 3.62 µM; in the experiment with K-562 leukemia, above 100 µM; in the experiment with UO-31 renal, 3.16 µM. In addition, in the experiment on SNB-19 CNS, the TGI was 6.43 µM.

The values are drawn from PubChem BioAssay (NCI).
